“And” between values parts separate entries of the source, which are not always exact repeats. Equal entries are not always repeated. Structures can show the parent of a compound that is named as a salt.
Tests used:
[1] = test system: BJ cell system (BJ-TERT, BJ-TERT/LT/ST, BJ-TERT/LT/ST/RAS^V12, DRD cells); experiment: Alamar blue potency and selectivity in the engineered BJ cell system; settings: for growth inhibitory activity and selectivity in the BJ cell system (in words): alamar blue, structural analogs and hits; for activity of analogs of Compound 27, percent growth inhibition (in words): cell viability assay, SAR of Compound 27
Experimental: Empty “step-daughter plates” were filled with 50 μL DMEM, except for columns 3 and 13, where 100 μL of hit compound solution were cherry-picked from daughter plates. After compound transfer, 2-fold dilution series across columns 3 through 12 and columns 13 through 22 was made by transferring 50 μL of compound solution to the next column successively (10-point dilution series), with extensive mixing. Hit-picking and 2-fold dilution series were carried out using Biomek FX Span-8 module (Beckman Coulter). Assay plates were prepared by seeding 1,000 BJ-TERT, BJ-TERT/LT/ST, and BJ-TERT/LT/ST/RAS^V12 cells per well in 36 μL growth medium. Cells in assay plates were treated with compounds from step-daughter plates by transferring 4 μL. The final concentration of the compound was 5.33 μg/mL to 0.01 μg/mL in this 10-point, 2-fold dilution series. Assay plates were returned to the culture incubator and maintained for 48 hours before adding alamar blue.
Fresh daughter plates were made from the mother plate and cherry-picked hits from the first round, 2-fold dilution series experiment as described above. Assay plates were prepared by seeding 1,000 BJ-TERT, BJ-TERT/LT/ST, BJ-TERT/LT/ST/RAS^V12 or BJ-TERT/p53DD/CDK4/cyclinD1/ST/RAS^V12 (DRD) cells per well in 32 μL growth media. Cells in the assay plates were treated with compounds from the step-daughter plate by transferring 8 μL solution. The final concentration of the compound was 10.66 μg/mL to 0.02 μg/mL in a 10-point, 2-fold dilution series manner. Assay plates were returned to the culture incubator and maintained for 48 hours before adding alamar blue.
Cells were seeded in 384-well assay plates, treated with candidate compounds, and incubated in the culture incubator in 40 μL culture volume per well. […] Plates were incubated further for 16 hours to allow reduction of alamar blue, which results in the generation of red fluorescence. The fluorescence intensity was determined using a Victor 3 plate reader (Perkin Elmer) with a 535 nm excitation filter and a 590 nm emission filter.
In the subsequent two-fold dilution series testing, selectivity was calculated as the ratio of GI50 values in BJ-TERT/LT/ST and BJ-TERT/LT/ST/RAS^V12 cells. […] DRD cells are also derived from BJ primary cells and the effects of mutations in both lines should be similar.

[2] = test system: BJeH, BJeHLT, BJeLR and DRD cells; experiment: Cell growth inhibition by stereoisomers of Compound 27; settings: for cell growth inhibition (in words): BJeH, BJeHLT, BJeLR, DRD cells
[3] = test system: HeLa; experiment: Alamar Blue assay, additional cell lines; assay type: cell-based; settings: Cervical carcinoma
Description: (§1) The results of this additional testing are summarized in Tables 7-10 (no additional cell lines were identified as sensitive for Compound 3). […] The tumor type, cell line, maximum percentage inhibition, the concentration of compound required to inhibit cell growth by 50%, and RAS mutation (if any) are also summarized.

[4] = test system: MES-CA; experiment: Alamar Blue assay, additional cell lines; assay type: cell-based; settings: Uterine sarcoma
Description: as §1

[5] = test system: SK-ES-1; experiment: Alamar Blue assay, additional cell lines; assay type: cell-based; settings: anaplastic osteosarcoma
Description: as §1

[6] = test system: SK-LMS-1; experiment: Alamar Blue assay, additional cell lines; assay type: cell-based; settings: Leimyosarcoma, vulva
Description: as §1

[7] = test system: SK-UT; experiment: Alamar Blue assay, additional cell lines; assay type: cell-based; settings: Uterine, mixed mesodermal tumor
Description: as §1

[8] = test system: TC32; experiment: Alamar Blue assay, additional cell lines; assay type: cell-based
Description: as §1

[9] = test system: TC71; experiment: Alamar Blue assay, additional cell lines; assay type: cell-based
Description: as §1

[10] = test system: U-2 OS; experiment: Alamar Blue assay, additional cell lines; assay type: cell-based; settings: Osteosarcoma
Description: as §1

[11] = test system: U973; experiment: Alamar Blue assay, additional cell lines; assay type: cell-based
Description: as §1

[12] = test system: BJELR (Foreskin fibroblasts w/ TERT, LT, ST, RAS); experiment: Alamar Blue assay, additional cell lines; assay type: cell-based, human
Description: as §1

[13] = test system: Calu-1; experiment: Alamar Blue assay, additional cell lines; assay type: cell-based, human; settings: Calu-1, Non-small cell lung carcinoma, Alamar Blue
Description: as §1

[14] = test system: HT1080; experiment: Alamar Blue assay, additional cell lines; assay type: cell-based, human
Description: as §1

[15] = test system: HL-60(TB); settings: Leukemia
[16] = test system: HL-60(TB); experiment: cells; settings: Homo sapiens
[17] = test system: K-562; experiment: NCI60 anti-cancer screening
[18] = test system: 786-0; experiment: NCI60 anti-cancer screening
[19] = test system: ACHN; experiment: NCI60 anti-cancer screening
[20] = test system: CAKI-1; experiment: NCI60 anti-cancer screening; settings: Homo sapiens
[21] = test system: RXF393; experiment: NCI60 anti-cancer screening
[22] = test system: UO-31; experiment: NCI60 anti-cancer screening
[23] = test system: PARP-1 cleavage in BJ-TERT/LT/ST/RAS^V12 cells; experiment: Western blot of PARP-1 cleavage upon compound treatment; assay type: cell-based, human; settings: Western blot with anti-PARP-1 antibody
Experimental: 2×10^6 BJ-TERT/LT/ST/RAS^V12 cells were seeded in 10 cm dishes and treated with 1 μM staurosporine, 10 μg/mL erastin, 20 μg/mL Compound 3, and 1 μg/mL Compound 27 for 16 h. Both dying cells and live cells in each 10 cm dish were harvested and collected in the same 15 mL tubes by centrifuging cell suspension at 1,000 rpm for 5 min. Cell pellets were washed three times with PBS and cells were lysed in 200 μL of denaturing lysis buffer (50 mM HEPES KOH [pH 7.4], 40 mM NaCl, 2 mM EDTA, 1.5 mM Na3VO4, 50 mM NaF, 10 mM sodium pyrophosphate, 10 mM sodium β-glycerophosphate, 0.5% Triton X-100, and protease inhibitor tablet [Roche, cat.#11836170001]). Protein content was quantified using a Bio-Rad protein assay reagent (Bio-Rad, cat.#500-00006). Equal amounts of protein were resolved on SDS-polyacrylamide gels. The electrophoresed proteins were transblotted onto a PVDF membrane, blocked with 5% milk, and incubated with rabbit primary antibodies specific to: PARP (Santa Cruz, cat.#sc-7150), cleaved caspase-3 (Cell Signaling Technology, cat.#9661) overnight at 4° C. The membrane was then incubated in IRDye 800 goat anti-rabbit antibody (Li-cor Bioscience cat.#926-32211) at 1:3,000 dilutions for 45 min at room temperature. After washing off the unbound antibodies, membranes were scanned using the Odyssey™ Imaging System (Li-cor Bioscience).

[24] = test system: Calu-1 cells expressing shRNAs targeting HRAS, NRAS or KRAS; experiment: Drug sensitivity after shRNA knockdown of RAS; assay type: cell-based, human; settings: alamar blue
Experimental: On day one, 3×10^5 Calu-1 cells or 2×10^5 HT1080 cells were seeded in 10-cm dishes; on day 2, frozen virus stock was thawed at 37° C., hexadimethrine bromide (polybrene) (Sigma, cat.#H9268) was added to the virus solution at a final concentration of 8 μg/mL and growth media from cell culture was replaced with the virus/polybrene mixture. The culture was returned to the tissue culture incubator for 2 hours, with rocking of the dishes every 30 min in order to prevent drying. After 2 h, 10 mL growth medium was added, the culture was incubated for 2 days, and cells stably expressing shRNA were selected by adding puromycin (Sigma, cat.#P9620) at a final concentration of 1.5 μg/mL.
On the day of experiment, assay plates were prepared by seeding 3,000 HT1080, HT1080-pLKO, HT1080-TfR1 KD, Calu-1, Calu-1-pLKO, or Calu-1-509 cells per well in 36 μL of growth media to black, clear bottom 384-well plates. Also, assay plates were prepared by seeding 1,500 shRNA infected HT1080 or Calu-1 cells per well. Cells in assay plates were treated with each lethal compound in a 2-fold dilution series by transferring 4 μL solution from a 10× lethal plate of Erastin, Compound 3, Compound 27, or Compound 36. […] Percent growth inhibition (% GI) was calculated using fluorescence intensity values.

[25] = test system: cellular iron in BJ-TERT/LT/ST/RAS^V12 cells; experiment: Cellular iron level by flow cytometry with Phen Green SK; assay type: cell-based, human; settings: 24 hours treatment
Experimental: Cells were seeded in 6-well plates (200,000 cells per well) in BJ medium. The next day, the cell monolayer was washed with phosphate buffered saline (“PBS”) twice and stained with 5 μM of Phen Green SK, diacetate (Molecular Probe, cat.#P14313) in PBS by incubating the plate for 15 minutes in a culture incubator. Cells were released with trypsin/EDTA, harvested in 2 mL PBS, and centrifuged at 1,000 rpm for 5 min. The cell pellet was re-suspended in 1 mL of PBS, the cell suspension was transferred to disposable FACS tubes, and the fluorescence profile of the sample was monitored using a FACSCalibur system (BD Biosciences).

SMILES: COC(=O)C1Cc2c([nH]c3ccccc23)C(C)(C)N1C(=O)CCl (stereo not shown) [Compound 28]
- growth inhibitory activity and selectivity in the BJ cell system (in words) [1]: virtually the same activity and selectivity

SMILES: COC(=O)c1ccc([C@H]2c3[nH]c4ccccc4c3C[C@H](C(=O)OC)N2C(=O)CCl)cc1 [1S,3R Compound 27]
- cell growth inhibition (in words) [2]: strong cell growth inhibition in two cell lines
- EC50 ([2]; Homo sapiens): ~0.005 µg/mL and ~10 nM
- selective lethality (in words) ([2]; mutant HRAS BJ tumor cell lines versus isogenic cell lines lacking oncogenic HRAS): selective lethality towards BJ tumor cell lines containing mutant HRAS

SMILES: C=CC(=O)N1C(C(=O)OC)Cc2c([nH]c3ccccc23)C1c1ccc(C(=O)OC)cc1 (stereo not shown) [acryl analog]
- activity of analogs of Compound 27, percent growth inhibition (in words) [1]: insufficiently active

SMILES: CCOc1ccccc1-n1c(C(C)N2CCN(C(=O)COc3ccc(Cl)cc3)CC2)nc2ccccc2c1=O (stereo not shown) [Erastin, reference compound]
- Maximum Inhibition % [3]: 94%
- GI50 ([3]; Homo sapiens): 0.6 µM
- GI50 [4]: 3 µM
- Maximum Inhibition % [4]: 100%
- Maximum Inhibition % ([5]; Ewing sarcoma): 98%
- GI50 ([5]; Homo sapiens, SK-ES1, Ewing sarcoma): 7 µM
- GI50 ([6]; Homo sapiens): 6 µM
- Maximum Inhibition % [6]: 100%
- GI50 [7]: 4 µM
- Maximum Inhibition % [7]: 73%
- GI50 ([8]; Homo sapiens, TC-32, Peripheral neuroepithelioma): 8 µM
- Maximum Inhibition % ([8]; Peripheral neuroepithelioma): 88%
- Maximum Inhibition % ([9]; Ewing sarcoma): 92%
- GI50 ([9]; TC-71, Ewing sarcoma): 10 µM
- GI50 ([10]; Homo sapiens, U2OS): 6 µM
- Maximum Inhibition % [10]: 96%
- Maximum Inhibition % ([11]; Acute myelogenous leukemia): 73%
- GI50 ([11]; U-973, Acute myelogenous leukemia): 10 µM
- Maximum Inhibition % [12]: 100%
- GI50 ([12]; Homo sapiens): 6 µM
- Maximum Inhibition % [13]: 100%
- GI50 ([13]; Homo sapiens): 6 µM
- Maximum Inhibition % ([14]; Fibrosarcoma): 98%
- GI50 ([14]; Homo sapiens, HT-1080, Fibrosarcoma): 2 µM
- GI 100% [15]: >10 µM
- GI50 ([16]; HL-60): 2.26 µM
- CC50 ([16]; HL-60, read-out: LC 50%): > 10 µM
- GI50 ([17]; Homo sapiens, K562): 3.39 µM
- CC50 ([17]; Homo sapiens, K562, read-out: LC 50%): > 10 µM
- GI 100% ([17]; K-562, Leukemia): >10 µM
- GI 100% ([18]; 786-0, Renal Cancer): 4.12 µM
- GI50 ([18]; Homo sapiens, 786-0): 2.03 µM
- CC50 ([18]; Homo sapiens, 786-0, read-out: LC 50%): 8.36 µM
- GI50 ([19]; Homo sapiens): 0.979 µM
- CC50 ([19]; Homo sapiens, read-out: LC 50%): 6.3 µM
- GI 100% ([19]; Renal Cancer): 2.5 µM
- GI50 ([20]; CAKI-1): 2.15 µM
- CC50 ([20]; CAKI-1, read-out: LC 50%): > 10 µM
- GI50 ([21]; Homo sapiens, RXF 393): 2.16 µM
- CC50 ([21]; Homo sapiens, RXF 393, read-out: LC 50%): > 10 µM
- GI 100% ([21]; RXF393, Renal Cancer): 7.2 µM
- GI50 ([22]; Homo sapiens, UO-31): 0.373 µM
- CC50 ([22]; Homo sapiens, UO-31, read-out: LC 50%): > 10 µM
- GI 100% ([22]; UO-31, Renal Cancer): 1.63 µM

SMILES: COC(=O)C1=C(C)NC2=C(C(=O)CC(c3ccc(Cl)cc3)C2)C1c1ccccc1F (stereo not shown) [Compound 5]
- growth inhibitory activity and selectivity in the BJ cell system (in words) [1]: varied potency and selectivity

SMILES: CN[C@@H]1C[C@H]2O[C@@](C)([C@@H]1OC)n1c3ccccc3c3c4c(c5c6ccccc6n2c5c31)C(=O)NC4 [staurosporine, reference compound]
- PARP-1 cleavage / type of cell death [23]: showed PARP-1 cleavage
- sensitivity of Calu-1 cells after RAS shRNA compared with parental cells [24]: loss of sensitivity to staurosporine was not observed

SMILES: CC(=O)N(O)CCCCCNC(=O)CCC(=O)N(O)CCCCCNC(=O)CCC(=O)N(O)CCCCCN [DFOM, deferoxamine mesylate]
- change of cellular iron level (PGSK fluorescence) [25]: induced a peak shift in the fluorescence profile

SMILES: COC(=O)c1ccc([C@@H]2c3[nH]c4ccccc4c3C[C@@H](C(=O)OC)N2C(=O)CCl)cc1 [(1R,3S) Compound 27]
- cell growth inhibition (in words) [2]: no appreciable growth inhibition

SMILES: O=C(NN=Cc1c(O)ccc2ccccc12)c1ccncc1 [Compound 311]
- change of cellular iron level (PGSK fluorescence) [25]: induced a peak shift in the fluorescence profile

SMILES: COC(=O)c1ccc([C@H]2c3[nH]c4ccccc4c3C[C@@H](C(=O)OC)N2C(=O)CCl)cc1 [(1S,3S) Compound 27]
- cell growth inhibition (in words) [2]: no appreciable growth inhibition

SMILES: COC(=O)c1ccc([C@@H]2c3[nH]c4ccccc4c3C[C@H](C(=O)OC)N2C(=O)CCl)cc1 [1R,3R Compound 27]
- cell growth inhibition (in words) [2]: no appreciable growth inhibition

SMILES: COC(=O)C1Cc2c([nH]c3ccccc23)C(c2ccc(NC(=O)CCCCCNC(=O)CCCCC3SCC4NC(=O)NC43)cc2)N1C(=O)CCl (stereo not shown) [biotinylated analog of Compound 27]
- activity of analogs of Compound 27, percent growth inhibition (in words) [1]: not sufficiently active
